Measured values published in patent EP0326329B1, “Quinazoline derivatives useful as insecticides” (Dow AgroSciences LLC, priority 1988, dated 1989).

Columns and labels:
Type in all cases: in vivo
[1] = system: Erysiphe graminis tritici (powdery mildew); assay: Greenhouse Test 1, foliar spray fungicide screen (POWD MDEW), host wheat; conditions: disease control rating, 400 ppm (+++ at 100 ppm)
[2] = system: Pyricularia oryzae (rice blast); conditions: disease control rating, foliar spray, host rice; 400 ppm (+++ at 100 ppm)
[3] = system: Puccinia recondita tritici (leaf rust); assay: Greenhouse Test 1, foliar spray fungicide screen (LEAF RUST), host wheat; conditions: disease control rating, 400 ppm (+++ at 100 ppm)
[4] = system: Botrytis cinerea (gray mold); assay: Greenhouse Test 1, foliar spray fungicide screen (GRAY MOLD), host grape berries; conditions: disease control rating, 400 ppm (+++ at 100 ppm)
[5] = system: Pseudoperonospora cubensis (downy mildew); assay: Greenhouse Test 1, foliar spray fungicide screen (DOWN MDEW), host squash; conditions: disease control rating, 400 ppm (+++ at 100 ppm)
[6] = system: Cercospora beticola (leaf spot); assay: Greenhouse Test 1, foliar spray fungicide screen (LEAF SPOT), host sugar beet; conditions: disease control rating, 400 ppm (+++ at 100 ppm)
[7] = system: Venturia inaequalis (apple scab); assay: Greenhouse Test 1, foliar spray fungicide screen (APPL SCAB), host apple seedling; conditions: disease control rating, 400 ppm (+++ at 100 ppm)
[8] = system: Septoria tritici (leaf blotch); assay: Greenhouse Test 1, foliar spray fungicide screen (LEAF BLOT), host wheat; conditions: disease control rating, 400 ppm (+++ at 100 ppm)
[9] = system: Southern corn rootworm (Diabrotica undecimpuctata howardi Barber); assay: Mite/insect screen, soil treatment (CRW); conditions: percent mortality, soil treatment
Method in brief: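 Compounds dissolved in acetone/alcohol (50:50) with Toximul R/S emulsifiers, diluted with water. Soil (15 g, with presoaked corn seed) treated with 1 mL test solution, dried 6–12 h, then five 2–3 instar larvae added; held at 23°C. Percent mortality and phytotoxicity scored after standard exposure periods.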

[10] = system: southern armyworm (Spodopetra eridania Cramer); assay: Mite/insect screen, sprayed squash leaves (SAW); conditions: Spodoptera eridania, percent mortality, read-out: SAW RESULTS %
Method in brief: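 For the armyworm test, two uninfested sprayed leaves were excised, once dry for an hour, and placed in a Petri dish holding larvae. Spray solutions came from an emulsifier-containing 50:50 acetone/alcohol formulation diluted with water and were applied to runoff.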

[11] = system: Twospotted spider mites (Tetranychus urticae Koch); assay: Mite/insect screen, sprayed squash cotyledons (SM); conditions: percent mortality
Method in brief: (§1)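 Steps: formulate compound in acetone/alcohol 50:50 carrying emulsifiers; dilute with water; spray leaves until runoff on upper and lower surfaces; air-dry one hour; for armyworm, excise two […] leaves into a dish of larvae; after exposure, score mortality and plant injury.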

[12] = system: melon aphids (Aphis gossypii Glover); assay: Mite/insect screen, sprayed squash cotyledons (MA); conditions: percent mortality
Method in brief: as §1

Plasmopara viticola = assay: Fungicide field tests; conditions: crop: grape
Text: (§2) Selected compounds were field tested on various crops against a variety of pathogens. […]

Phytophthora infestans = conditions: crop: potato
Alternaria brassicae = assay: Fungicide field tests; conditions: crop: rape
Text: as §2

Erysiphe graminis hordei = assay: Fungicide field tests; conditions: crop: barley
Text: as §2

[13] = system: Erysiphe graminis tritici; assay: Fungicide field tests; conditions: crop: wheat
Text: as §2

Podosphaera leucotricha = assay: Fungicide field tests; conditions: crop: apple
Text: as §2

[14] = system: Pseudocercosporella herpotrichoides; assay: Fungicide field tests; conditions: crop: wheat
Text: as §2

Pyrenophora teres = assay: Fungicide field tests; conditions: crop: barley
Text: as §2

Rhynchosporium secalis = assay: Fungicide field tests; conditions: crop: barley
Text: as §2

Septoria nodorum = assay: Fungicide field tests; conditions: crop: wheat
Text: as §2

Sphaerotheca fuliginea = assay: Fungicide field tests; conditions: crop: cucumber
Text: as §2

Uncinula necator = assay: Fungicide field tests; conditions: crop: grapes
Text: as §2

[15] = Diabrotica, CRW rate 12.00 ppm, read-out: CRW RESULTS %
[16] = Tetranychus urticae, spray rate 200 ppm, read-out: SM RESULTS %
[17] = Aphis gossypii, spray rate 200 ppm, read-out: MA RESULTS %

Compound	POWD MDEW [1]	RICE BLAST [2]	LEAF RUST [3]	GRAY MOLD [4]	DOWN MDEW [5]	LEAF SPOT [6]	APPL SCAB [7]	LEAF BLOT [8]	mortality at 12 ppm [9, 15]	mortality at 200 ppm [11, 16]	mortality at 200 ppm [12, 17]	pathogen against which compound demonstrated activity in field tests (Plasmopara viticola)	further results
Clc1ccc(CCOc2ncnc3ccccc23)cc1 [Example 5, 4-[2-(4-chlorophenyl)ethoxy]quinazoline]	+++ (+++ = 90-100% control at 100 ppm)	+++ (+++ = 90-100% control at 100 ppm)	+++ (+++ = 90-100% control at 100 ppm)	- (- = 0-19% control at 400 ppm)	+ (+ = 20-89% control at 400 ppm)	+++ (+++ = 90-100% control at 100 ppm)	+++ (+++ = 90-100% control at 100 ppm)	++ (++ = 90-100% control at 400 ppm)	0%	100%	100%	Plasmopara viticola	mortality at 24 ppm ([9]; Diabrotica, CRW rate 24.00 ppm, read-out: CRW RESULTS %): 0%; mortality at 200 ppm ([10]; spray rate 200 ppm): 20%; mortality at 400 ppm ([10]; spray rate 400 ppm): 0%; mortality at 400 ppm ([11]; Tetranychus urticae, spray rate 400 ppm, read-out: SM RESULTS %): 50%; mortality at 400 ppm ([12]; Aphis gossypii, spray rate 400 ppm, read-out: MA RESULTS %): 100%; pathogen against which compound demonstrated activity in field tests (Phytophthora infestans): Phytophthora infestans
c1ccc2cc(CCNc3ncnc4ccccc34)ccc2c1 [Example 53, N-[2-(2-naphthyl)ethyl]-4-quinazolinamine]	+++ (+++ = 90-100% control at 100 ppm)	+++ (+++ = 90-100% control at 100 ppm)	+++ (+++ = 90-100% control at 100 ppm)	- (- = 0-19% control at 400 ppm)	+++ (+++ = 90-100% control at 100 ppm)	- (- = 0-19% control at 400 ppm)	+ (+ = 20-89% control at 400 ppm)	+++ (+++ = 90-100% control at 100 ppm)	0%	0%	0%	Plasmopara viticola	CRW RESULTS % ([9]; CRW rate 12.00 ppm): 0%; SM RESULTS % ([11]; spray rate 200 ppm): 0%; MA RESULTS % ([12]; spray rate 200 ppm): 0%; pathogen against which compound demonstrated activity in field tests (Alternaria brassicae): Alternaria brassicae; pathogen against which compound demonstrated activity in field tests (Erysiphe graminis hordei): Erysiphe graminis hordei; pathogen against which compound demonstrated activity in field tests [13]: Erysiphe graminis tritici; pathogen against which compound demonstrated activity in field tests (Podosphaera leucotricha): Podosphaera leucotricha; pathogen against which compound demonstrated activity in field tests [14]: Pseudocercosporella herpotrichoides; pathogen against which compound demonstrated activity in field tests (Pyrenophora teres): Pyrenophora teres; pathogen against which compound demonstrated activity in field tests (Rhynchosporium secalis): Rhynchosporium secalis; pathogen against which compound demonstrated activity in field tests (Septoria nodorum): Septoria nodorum; pathogen against which compound demonstrated activity in field tests (Sphaerotheca fuliginea): Sphaerotheca fuliginea; pathogen against which compound demonstrated activity in field tests (Uncinula necator): Uncinula necator
